Results from patent US12624003B2, “Carboxylic acid containing indanyl compounds for the treatment of neurodegenerative diseases” (Celgene Corporation, priority 2020, dated 2026).

Molecular target: T1, S1P5 (Homo sapiens, UniProt Q9H228)
T1 construct: expressed in transfected cells; host or cells: CHO cells (membranes)
Experiment: [35S]-GTPγS functional binding assay on CHO-S1P5 membranes
Assay type: biochemical
Settings: membranes of CHO cells expressing recombinant S1P5 receptors; measure of S1P5 agonism
Method: CHO cells expressing recombinant S1P5 receptors were cultured in 500 cm^2 culture trays and, once confluent, rinsed and detached with cell-lifting buffer (10 mM HEPES, 154 mM NaCl, 6.85 mM EDTA, pH 7.4). Cells were then pelleted by centrifugation, resuspended, and homogenized in membrane preparation buffer (10 mM HEPES and 10 mM EDTA, pH 7.4) using a Polytron PT 1200E homogenizer (Kinematica, Luzern, Switzerland). Cellular proteins were pelleted by centrifugation at 48,000×g at 4° C. for 30 minutes. The resulting supernatant was discarded, and the pellet was re-suspended again in membrane preparation buffer, homogenized for a second time, and then centrifuged again as described above. The final cellular protein pellet was suspended in ice cold resuspension buffer (10 mM HEPES and 0.1 mM EDTA, pH 7.4), divided into aliquots, and stored at −80° C. until use.
Functional binding assays for [^35S]-GTPγS were performed in 96-well non-binding surface plates with a final volume of 200 μL. The test compounds were serially diluted in DMSO and added to assay plates using a Tecan D300E digital printer with a total volume of 0.4 μL. The control sphingosine-1-phosphate (S1P) was prepared separately by preparing a 400 μM stock solution from a 100 nmol pellet of SIP in 10 mM Na2CO3 with 2% s-cyclodextrin. The serial dilution of S1P was done using complete assay buffer (20 mM HEPES, 10 mM MgCl2, 100 mM NaCl, 1 mM EDTA, 0.1% fatty acid free bovine serum albumin (BSA), and 30 μg/mL saponin, pH 7.4) and transferred to wells already containing 0.4 μL DMSO. All the wells were then loaded to a total volume of 40 μL of complete assay buffer, except the non-specific binding (NSB) wells. For NSB wells, 40 μL/well of 50 μM GTPγS (Sigma Aldrich, cat #G8634, St. Louis, MO) was added to wells containing 0.4 μL of DMSO. The assay was started by the addition of 120 μL/well of CHO-S1P receptor membrane solution containing 40 μg/mL of membrane protein, 16.67 μM guanosine diphosphate (GDP; Sigma Aldrich, cat #G7127, St. Louis, MO), and 2.5 mg/mL of WGA PVT SPA beads in complete buffer. Assay plates were then sealed and incubated at room temperature with gentle agitation for 30 minutes. Next, 40 μL/well of 1 nM of [^35S]-GTPγS (PerkinElmer, cat #NEG030X250UC, Waltham, MA) in basic assay buffer (20 mM HEPES, 10 mM MgCl2, 100 mM NaCl, and 1 mM EDTA, pH 7.4) was added to the assay plates to yield a final concentration of […] and the plates were further incubated for 40 minutes at room temperature with gentle agitation. The assay was terminated by centrifugation of the plates at 1000 rpm for 3 minutes using an Eppendorf 5810R centrifuge (Eppendorf, Hamburg, Germany) and G protein bound radioactivity was quantitated using a MicroBeta2 microplate scintillation counter (PerkinElmer, Waltham, MA). As G protein bound radioactivity directly correlates to receptor activation and coupling to the G protein, this assay is a measure of S1P5 agonism.

T1 sequence (Q9H228 whole entry, species assumed): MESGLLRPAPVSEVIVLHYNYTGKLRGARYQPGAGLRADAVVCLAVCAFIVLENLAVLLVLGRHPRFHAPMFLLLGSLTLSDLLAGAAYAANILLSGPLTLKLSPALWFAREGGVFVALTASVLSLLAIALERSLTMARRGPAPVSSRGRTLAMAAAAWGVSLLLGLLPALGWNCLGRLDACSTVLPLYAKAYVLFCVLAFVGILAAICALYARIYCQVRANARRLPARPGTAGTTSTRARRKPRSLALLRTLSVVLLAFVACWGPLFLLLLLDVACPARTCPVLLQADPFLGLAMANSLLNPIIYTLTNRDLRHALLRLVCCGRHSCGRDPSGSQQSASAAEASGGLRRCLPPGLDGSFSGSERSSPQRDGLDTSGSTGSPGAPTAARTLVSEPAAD

| SMILES | EC50 |
| --- | --- |
| O=C(O)[C@H]1[C@@H]2CN(C3CCc4cc(C#Cc5cccc(F)c5)ccc43)C[C@@H]21 (stereo partly drawn) [Compound 16, (1R,5S,6r)-3-(5-((3-fluorophenyl)ethynyl)-2,3-dihydro-1H-inden-1-yl)-3-azabicyclo[3.1.0]-hexane-6-carboxylic acid] | 0.1 to 1 µM |
| O=C(O)[C@H]1CCCCN1C1CCc2cc(C#Cc3cccc(F)c3)ccc21 (single isomer, unassigned) [Compound 9a] | 1 to 10 µM |
| O=C(O)C1CCN(C2CCc3cc(CCc4c(Cl)cccc4Cl)ccc32)CC1 (single isomer, unassigned) [Compound 22b, 1-(5-(2,6-dichlorophenethyl)-2,3-dihydro-1H-inden-1-yl)piperidine-4-carboxylic acid] | ≤ 0.01 µM |
| O=C(O)C1CCN(C2CCc3cc(C#Cc4cccc(F)c4)ccc32)CC1 (single isomer, unassigned) [Compound 4a, 1-(5-((3-fluorophenyl)ethynyl)-2,3-dihydro-1H-inden-1-yl)piperidine-4-carboxylic acid] | 0.1 to 1 µM |
| O=C(O)C1CC2(C1)CN(C1CCc3cc(CCc4c(Cl)cccc4Cl)ccc31)C2 (centres unmarked) [Compound 29, 2-(5-(2,6-dichlorophenethyl)-2,3-dihydro-1H-inden-1-yl)-2-azaspiro[3.3]heptane-6-carboxylic acid] | 0.01 to 0.1 µM |
| O=C(O)C1CCN(C2CCc3cc(C#Cc4ccccc4F)ccc32)CC1 (single isomer, unassigned) [Compound 6b, 1-(5-((2-fluorophenyl)ethynyl)-2,3-dihydro-1H-inden-1-yl)piperidine-4-carboxylic acid] | ≤ 0.01 µM |
| O=C(O)C1CCN(C2CCc3cc(C#Cc4cccc(F)c4)ccc32)CC12CC2 (centres unmarked) [Compound 12, 5-(5-((3-fluorophenyl)ethynyl)-2,3-dihydro-1H-inden-1-yl)-5-azaspiro[2.5]octane-8-carboxylic acid] | 0.01 to 0.1 µM |
| O=C(O)[C@@H]1[C@@H]2CN(C3CCc4cc(C#Cc5cccc(F)c5)ccc43)C[C@@H]21 (stereo partly drawn) [Compound 17, (1R,5S,6s)-3-(5-((3-fluorophenyl)ethynyl)-2,3-dihydro-1H-inden-1-yl)-3-azabicyclo[3.1.0]-hexane-6-carboxylic acid] | 0.01 to 0.1 µM |
| O=C(O)C1CCN(C2CCc3cc(C#Cc4ccccc4F)ccc32)CC12CC2 (centres unmarked) [Compound 11, 5-(5-((2-fluorophenyl)ethynyl)-2,3-dihydro-1H-inden-1-yl)-5-azaspiro[2.5]octane-8-carboxylic acid] | 0.01 to 0.1 µM |
| O=C(O)C1CN(C2CCc3cc(-c4ccc(C5CC5)c(F)c4)ccc32)C1 (single isomer, unassigned) [Compound 31b, 1-(5-(4-cyclopropyl-3-fluorophenyl)-2,3-dihydro-1H-inden-1-yl)azetidine-3-carboxylic acid] | ≤ 0.01 µM |
| O=C(O)C1CCN(C2CCc3cc(-c4ccc5c(c4)CCC5)ccc32)CC1 (single isomer, unassigned) [Compound 44, 1-(2,2′,3,3′-tetrahydro-1H,1′H-[5,5′-biinden]-1-yl)piperidine-4-carboxylic acid] | 0.01 to 0.1 µM |
| O=C(O)C1CN(C2CCc3cc(C#Cc4cccc(F)c4)ccc32)C1 (single isomer, unassigned) [Compound 19, 1-(5-((3-fluorophenyl)ethynyl)-2,3-dihydro-1H-inden-1-yl)azetidine-3-carboxylic acid] | ≤ 0.01 µM |
| O=C(O)[C@H]1CCN(C2CCc3cc(C#Cc4cccc(F)c4)ccc32)C1 (single isomer, unassigned) [Compound 13b] | 0.01 to 0.1 µM |
| O=C(O)[C@@H]1CCN(C2CCc3cc(-c4ccc(C5CC5)c(Cl)c4)ccc32)C1 (single isomer, unassigned) [Compound 34a] | ≤ 0.01 µM |
| O=C(O)[C@@H]1CCN(C2CCc3cc(-c4ccc(C5CC5)c(F)c4)ccc32)C1 (single isomer, unassigned) [Compound 36b] | ≤ 0.01 µM |
| O=C(O)C1CN(C2CCc3cc(-c4ccc(C5CC5)c(Cl)c4)ccc32)C1 (single isomer, unassigned) [Compound 30a, 1-(5-(3-chloro-4-cyclopropylphenyl)-2,3-dihydro-1H-inden-1-yl)azetidine-3-carboxylic acid] | ≤ 0.01 µM |

| SMILES | EC50 |
| --- | --- |
| O=C(O)[C@H]1CCN(C2CCc3cc(-c4ccc(C5CC5)c(Cl)c4)ccc32)C1 (single isomer, unassigned) [Compound 35a] | 0.01 to 0.1 µM |
| O=C(O)C1CCN(C2CCc3cc(-c4ccc(C5CC5)c(Cl)c4)ccc32)CC1 (single isomer, unassigned) [Compound 32a, 1-(5-(3-chloro-4-cyclopropylphenyl)-2,3-dihydro-1H-inden-1-yl)piperidine-4-carboxylic acid] | 0.1 to 1 µM |
| O=C(O)C1CCN(C2CCc3cc(CCc4c(F)cccc4F)ccc32)CC1 (single isomer, unassigned) [Compound 28a, 1-(5-(2,6-difluorophenethyl)-2,3-dihydro-1H-inden-1-yl)piperidine-4-carboxylic acid] | 0.1 to 1 µM |
| O=C(Cc1ccc2c(c1)CCC2N1CCC(C(=O)O)CC1)c1c(Cl)cccc1Cl (single isomer, unassigned) [Compound 24, 1-(5-(2-(2,6-dichlorophenyl)-2-oxoethyl)-2,3-dihydro-1H-inden-1-yl)piperidine-4-carboxylic acid] | 0.01 to 0.1 µM |
| O=C(O)[C@H]1CCN(C2CCc3cc(-c4ccc(C5CC5)c(F)c4)ccc32)C1 (single isomer, unassigned) [Compound 37b] | 0.01 to 0.1 µM |
| O=C(O)C1CCN(C2CCc3cc(CCc4ccccc4Cl)ccc32)CC1 (single isomer, unassigned) [Compound 25b, 1-(5-(2-chlorophenethyl)-2,3-dihydro-1H-inden-1-yl)piperidine-4-carboxylic acid] | 0.1 to 1 µM |
| O=C(O)[C@@H]1CCCCN1C1CCc2cc(C#Cc3cccc(F)c3)ccc21 (single isomer, unassigned) [Compound 8b] | 1 to 10 µM |
| O=C(O)C1CC2(C1)CN(C1CCc3cc(-c4ccc(C5CC5)c(Cl)c4)ccc31)C2 (centres unmarked) [Compound 39, 2-(5-(3-chloro-4-cyclopropylphenyl)-2,3-dihydro-1H-inden-1-yl)-2-azaspiro[3.3]heptane-6-carboxylic acid] | 0.01 to 0.1 µM |
| O=C(O)C1=CCN(C2CCc3cc(C#Cc4c(Cl)cccc4Cl)ccc32)CC1 (centres unmarked) [Compound 2, 1-(5-((2,6-dichlorophenyl)ethynyl)-2,3-dihydro-1H-inden-1-yl)-1,2,3,6-tetrahydropyridine-4-carboxylic acid] | ≤ 0.01 µM |
| O=C(O)C1CCCN(C2CCc3cc(-c4ccc(C5CC5)c(Cl)c4)ccc32)C1 (centres unmarked) [Compound 38, 1-(5-(3-chloro-4-cyclopropylphenyl)-2,3-dihydro-1H-inden-1-yl)piperidine-3-carboxylic acid] | 0.01 to 0.1 µM |
| O=C(O)[C@@H]1CCCN(C2CCc3cc(C#Cc4cccc(F)c4)ccc32)C1 (single isomer, unassigned) [Compound 7a] | 0.01 to 0.1 µM |
| O=C(O)C1CCN(C2CCc3cc(C#Cc4c(Cl)cccc4Cl)ccc32)CC1 (centres unmarked) [Compound 1, 1-(5-((2,6-dichlorophenyl)ethynyl)-2,3-dihydro-1H-inden-1-yl)piperidine-4-carboxylic acid] | ≤ 0.01 µM |
| O=C(O)[C@@H]1CCN(C2CCc3cc(C#Cc4cccc(F)c4)ccc32)C1 (single isomer, unassigned) [Compound 14b] | ≤ 0.01 µM |
| CC1(C)CN(C2CCc3cc(C#Cc4cccc(F)c4)ccc32)CCC1C(=O)O (centres unmarked) [Compound 5, 1-(5-((3-fluorophenyl)ethynyl)-2,3-dihydro-1H-inden-1-yl)-3,3-dimethylpiperidine-4-carboxylic acid] | 0.1 to 1 µM |
| O=C(O)C1CCN(C2CCc3cc(CCc4c(F)cccc4F)ccc32)CC1 (single isomer, unassigned) [Compound 28b, 1-(5-(2,6-difluorophenethyl)-2,3-dihydro-1H-inden-1-yl)piperidine-4-carboxylic acid] | 0.01 to 0.1 µM |
| COc1cc(OC)cc(-c2ccc3c(c2)CCC3N2CCC(C(=O)O)CC2)c1 (single isomer, unassigned) [Compound 40, 1-(5-(3,5-dimethoxyphenyl)-2,3-dihydro-1H-inden-1-yl)piperidine-4-carboxylic acid] | 0.1 to 1 µM |
